Where two headings read alike, the source gives them in different places.
Columns and labels:
[1] = tested on: Rhipicephalus sanguineus; experiment: Rapid screening protocol for topical application on brown dog ticks (% mortality)
Protocol: d) Rapid Screening Protocol for Topical Application on Brown Dog Ticks (Rhipicephalus sanguineus)
The aim of the test was to determine the presence of significant acaricidal activity in sample compounds or formulations when applied topically on brown dog ticks. A tick was defined as dead if it gave no apparent response when touched lightly and observed for 1 minute. To assess the experimental compound for acaricidal activity, a single dose level was chosen based on known results from previous experiments with a commercially available active reference compound. Both permethrin and fipronil were employed as reference compounds. The insect species tested was the Brown Dog Tick (Rhipicephalus sanguineus). Mixed sex adult ticks were used for tests. The strain used was cultured by von Berky Veterinary Services, Woody Point, QLD, AU and supplied as unfed adult ticks (mixed sex). Ticks were maintained in controlled conditions (temp. 18°±2° C., humidity 75±5% RH).
Test compounds (formulations or active ingredients) were stored in a refrigerator (5±1° C.) unless otherwise specified. Temperature was maintained at 25±1° C. and the humidity was ambient. The screening dose chosen was higher than that known to kill 90% of insects (LD90) using the reference compound. In the case of topical application of active compounds on adult ticks, the reference compound was fipronil and the dose chosen was 10 μg of active per tick (=10 μg of fipronil/1 μl of acetone). Ticks were each treated on the abdomen with 1 μL of a single dose level of test sample in acetone; ten ticks were treated with solvent only (acetone) in each test. Tests were replicated 4 times (total of 40 ticks treated). Ticks were held in recovery containers maintained under appropriate rearing conditions for 24 hours. Mortality resulting from the treatments was recorded at 24 hours. Pooled 24 hour mortality data were converted to percentages.

[2] = tested on: Ctenocephalides felis; experiment: Ctenocephalides felis adulticide assay: C. felis dose response (LC50)
Text: c) Ctenocephalides felis Adulticide Assay: C. felis Dose Response
The purpose of this example was to determine the LC50 when cat fleas were contacted with a glass surface treated with sample compounds or formulations prepared as described above. […] The test species was the cat flea (Ctenocephalides felis). The strain used was obtained from external suppliers as pupae and held in the laboratory under testing conditions until the adults had emerged. Fifteen (15) fleas were used in a minimum of four replicates for each dose level (total of 60 fleas per dose level). The insects were selected to be in the adult life stage, aged between 3 and 7 days post emergence.
The compounds to be tested were dissolved in acetone just prior to testing. Samples of compounds were stored in a refrigerator (5±1° C.) unless otherwise specified. During the mortality testing, the temperature was maintained at 25±1° C. Humidity was maintained at 75±5%. The base (area=159 mm^2) of a 100 mL glass Erlenmeyer (conical) flask provided the treatment surface. Flasks were pretreated with Coatasil™ glass treatment to maximise bio-availability of test compounds by preventing them from binding to the glass surface.
The base of the 100 mL Erlenmeyer flask was treated with 0.5 mL of test sample in acetone and gently swirled. This volume was sufficient to cover the base of the flask. Flasks were left to dry for 24 hours before flea exposure. Adult cat fleas were lightly anaesthetised by cooling and then placed into a sorting chamber, which allowed fleas to revive and jump into the Erlenmeyer flasks. Fifteen (15) adult cat fleas were collected in each flask. The top of the flasks were then covered in Parafilm™ and small holes made to allow gas exchange. A 0.5 mL volume of acetone was applied to the base of an Erlenmeyer flask and the testing proceeded in the same manner described above. Cat fleas in the treatment containers were held under testing conditions for 24 hours. Mortality resulting from the treatments was recorded at 8 and 24 hours.

[3] = tested on: Ctenocephalides felis
In short: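 Adult cat fleas (3–7 days post-emergence), 15 per flask in ≥4 replicates, exposed to a dried acetone residue at 1.26 μg/cm^2 on a Coatasil-treated glass flask base. Held at 25±1° C, 75±5% humidity; mortality (immobile or unable to right) scored at 8, 24 and/or 48 h.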

[4] = tested on: Rhipicephalus sanguineus; experiment: Dose response protocol for topical application on brown dog ticks (LD50); details: 24 h mortality, probit analysis
Protocol: e) Dose response protocol for topical application on brown dog ticks (Rhipicephalus sanguineus): The test determines the level of insecticidal activity of sample compounds or formulations when applied topically on brown dog ticks. Sample compounds were stored prior to use in a freezer (−5±1° C.), unless otherwise specified.
• Mortality: A tick is defined as dead after it gives no apparent response when touched lightly or gently breathed upon, while observed for 30 seconds. • LD50 (Lethal Dose 50): The dose of a topically applied treatment at which 50% of the dog ticks are killed. • Reference compound: To assess an experimental compound for significant acaricidal activity a single dose level is chosen, which is based upon known results from previous experiments using a commercially available active i.e., a reference compound. The reference compound selected is one in common use, and one that has a similar mode of action against the Brown Dog Tick (i.e., the test species), • Recovery container: A recovery container consists of a 500 ml round plastic container measuring 115 mm diameter and 70 mm height, with a tight fitting lid that has 10 small (˜1 mm) holes inserted for air exchange. A 90 mm diameter piece of filter paper was placed on the bottom of the container and moistened with 1 mL of distilled water.
Adult, mixed sex, Brown Dog Ticks (Rhipicephalus sanguineus) were reared as follows: (i) cultured, (ii) transferred unfed, to a testing laboratory, and (iii) then maintained under controlled conditions (i.e., temp. 18°±2° C., humidity 75±5% RH). The ticks used were selected for vigor prior to testing, i.e., capable of actively walking and responsive to being touched or gently breathed upon.
During the testing, the temperature was maintained at 25±1° C. and the humidity was ambient. Seven dose levels (concentrations) of sample compound, in the form of serial dilutions in acetone, were derived from a pilot study and covered a range that produced very low to very high mortality. Groups of ten ticks were treated topically (on the abdomen) with 1 μL of a single dose level of the sample compound. Each test was replicated four times, i.e., employing a total of 40 ticks per dose level of each sample compound. As a control, ten ticks were treated with solvent only (acetone) for each test. Following the treatment, the ticks were held in recovery containers maintained under appropriate rearing conditions for 24 hours. Mortality resulting from the treatments was recorded at 24 hours. […] Press, London (1971).]

Compound	R. sanguineus Mortality (%) 24 h ([1]; data from laboratory 1)	R. sanguineus Mortality (%) 24 h ([1]; data from laboratory 2)	C. felis LC50 ([2]; data from laboratory 1)	C. felis Mortality (%) 24 h [3]	R. sanguineus LD50 [4]	C. felis LC50 [2]	C. felis Mortality (%) 8 h [3]	C. felis Mortality (%) 48 h [3]
CC(=NN(C)c1ccccc1)c1cc(Cl)ccc1NS(=O)(=O)C(F)(F)F [Compound 9]	88%	98%	0.86 ppm	100^B %	–	–	–	–
CC(=NN1CCOCC1)c1cc(Cl)ccc1NS(=O)(=O)C(F)(F)F [Compound 20]	95^A %	–	–	100%	0.75 μg/tick	0.86 ppm	100%	–
CC(=NN1CCCCC1)c1cc(Cl)ccc1NS(=O)(=O)C(F)(F)F [Compound 21, N-[2-[1-(1-piperidyl)imino]ethyl-4-chlorophenyl]-trifluoromethanesulfonamide]	78^A %	–	0.90 ppm	100%	0.64 μg/tick	–	100%	–
CC(=NN1CCOC1=O)c1cc(Cl)ccc1NS(=O)(=O)C(F)(F)F [Compound 23]	95^A %	–	–	100%	0.99 μg/tick	2.0 ppm	100%	–
CCCN(N=C(C)c1cc(Cl)ccc1NS(=O)(=O)C(F)(F)F)c1ccccc1 [Compound 25]	75^A %	–	–	100%	1.2 μg/tick	1.8 ppm	100%	–
CCN(N=C(C)c1cc(Cl)ccc1NS(=O)(=O)C(F)(F)F)c1ccc(Cl)cc1 [Compound 26]	–	97%	–	100%	5.4 μg/tick	0.12 ppm	–	100%
CC(=NN(c1cccc(Cl)c1)C(C)C)c1cc(Cl)ccc1NS(=O)(=O)C(F)(F)F [Compound 50]	–	68%	–	100%	–	–	61%	–
CCCN(N=C(C)c1cc(Cl)ccc1NS(=O)(=O)C(F)(F)F)c1ccc(Br)cc1 [Compound 53]	–	50%	–	100%	–	–	71%	–
CC(=NN(c1ccccc1Cl)C(C)C)c1cc(Cl)ccc1NS(=O)(=O)C(F)(F)F [Compound 56]	–	45%	–	99%	–	–	51%	–
CC(=NN(C)c1ccc(Br)cc1)c1cc(Cl)ccc1NS(=O)(=O)C(F)(F)F [Compound 63]	–	100%	–	100%	–	2.4 ppm	100%	–
CC(=NN(C)c1ccc(C(F)(F)F)cc1)c1cc(Cl)ccc1NS(=O)(=O)C(F)(F)F [Compound 65, N-[2-[1-(N′-methyl-(4-trifluoromethyl)phenyl)hydrazono]-ethyl-4-chlorophenyl]-trifluoromethanesulfonamide]	–	100%	–	100%	–	–	100%	–
CC(=NN(c1cccc(Cl)c1Cl)C(C)C)c1cc(Cl)ccc1NS(=O)(=O)C(F)(F)F [Compound 66]	–	48%	–	100%	–	–	18%	–
CC(=NN(C)c1ccc(C)cc1)c1cc(Cl)ccc1NS(=O)(=O)C(F)(F)F [Compound 75]	–	100%	–	100%	–	1.4 ppm	100%	–
CC(=NN(c1cccc(F)c1)C(C)C)c1cc(Cl)ccc1NS(=O)(=O)C(F)(F)F [Compound 77]	–	73%	–	100%	–	–	91%	–
CCCN(N=C(C)c1cc(Cl)ccc1NS(=O)(=O)C(F)(F)F)c1ccc(Cl)c(Cl)c1 [Compound 97]	–	73%	–	100%	–	–	52%	–
CCCN(N=C(C)c1cc(Cl)ccc1NS(=O)(=O)C(F)(F)F)c1cc(Cl)cc(Cl)c1 [Compound 98]	–	60%	–	98%	–	–	19%	–
CCCN(N=C(C)c1cc(Cl)ccc1NS(=O)(=O)C(F)(F)F)c1c(Cl)cccc1Cl [Compound 103]	–	40%	–	100%	–	–	56%	–
CCCN(N=C(C)c1cc(Cl)ccc1NS(=O)(=O)C(F)(F)F)c1ccc(F)cc1 [Compound 104]	–	75%	–	100%	–	–	16%	–
CC(=NN(C)c1ccccc1)c1cc(Cl)ccc1N(C)S(=O)(=O)C(F)(F)F [Compound 109, N-[2-[1-(N′-methyl-N′-phenyl)hydrazono]ethyl-4-chlorophenyl]-N-methyl-trifluoromethanesulfonamide]	–	8%	–	100%	–	–	73%	–
CCOCN(c1ccc(Cl)cc1C(C)=NN(C)c1ccccc1)S(=O)(=O)C(F)(F)F [Compound 112]	–	5%	–	100%	–	–	99%	–
CC(=NN(C)c1ccccc1)c1ccc(C(F)(F)F)cc1NS(=O)(=O)C(F)(F)F [Compound 120, N-[2-[1-(N′-methyl-N′-phenyl)hydrazono]-ethyl-5-trifluoromethylphenyl]-trifluoromethanesulfonamide]	–	58%	–	83%	–	–	28%	–
CC(=NN(C)C)c1ccccc1NS(=O)(=O)C(F)(F)F [Compound 124]	–	88%	–	94%	–	–	59%	–
CCC(=NN1CCCCCC1)c1cc(Cl)ccc1NS(=O)(=O)C(F)(F)F [Compound 131]	–	98%	–	100%	–	–	43%	–
C/C(=N\N(CCC#N)C(=O)C(C)C)c1cc(Cl)ccc1NS(=O)(=O)C(F)(F)F [Compound 223]	–	100%	–	100%	–	–	45%	–
